The record followed here is publication PMC4880976, “Pharmacologic rationale for the NK1R antagonist, aprepitant as adjunctive therapy in HIV” (Journal of Translational Medicine, 2016).

Like-named read-outs stand apart in the source and are kept apart here.

One data set deals with human PBMC. The data set can be described thus: SP dependent cytokine and chemokine production by PBMC, multiplex assay. Type of data set: cell-based. The following applies: aprepitant 10 µM with SP 10 µM, 24 h. Here is the method: For cytokine and PD-1 assessment experiments freshly isolated peripheral blood mononuclear cell (PBMC) purchased from the Human Immunology Core Facility of The University of Pennsylvania School of Medicine (Philadelphia, PA) were cultured in RPMI medium supplemented with 10 % FBS overnight. Some cultures were treated with SP (10 µM) aprepitant (10 µM) or DMSO (0.001 %, vehicle for aprepitant). Cytokine concentrations were measured in supernatants using multiplex assay 24 h after SP/aprepitant treatment (see below). For PD-1 expression SP and aprepitant were added at day 0 and PD-1 expression was monitored daily for up to 8 days using flow cytometry.
Concentrations of pro-inflammatory cytokines and chemokines in supernatants of human PBMC were measured using human Cytokine/Chemokine Magnetic Bead Panel—Premixed 30 Plex, HCYTMAG-60K-PX30 (Millipore, Billerica, MA, USA) as recommended by the manufacturers.
Fig. 5 SP dependent up regulation of cytokine and chemokine production by human PBMC* is inhibited by aprepitant. *Freshly isolated PBMC from normal donors were incubated for 24 h with SP and/or Aprepitant (10 µM each) as indicated. Control cultures were either left untreated of incubated with DMSO (vehicle for aprepitant). Pro-inflammatory markers were measured in supernatants using MILLIPORE Human Cytokine/Chemokine Magnetic Bead Panel.

Data set [1] can be described thus: Protein binding by ultrafiltration in human and rhesus macaque plasma and FBS. Type of data set: in vitro ADME. As to conditions: three experiments. The protocol:
These experiments were conducted to assess the linkage between in vitro and in vivo exposure targets in order to more accurately project clinical dose requirements for aprepitant. Protein binding was assessed via ultrafiltration and detection of aprepitant in various biofluids was conducted via LC–MS/MS.
Ultrafiltration units (CorningR Spin-X UF; MWCO 10 K) and filtrate collection tubes were obtained from Corning (Tewksbury, MA). Control human plasma was obtained by centrifugation of blood obtained from CHOP blood bank. Stock solutions of aprepitant in methanol were added to human plasma (1 %, v/v) to provide plasma samples at a nominal concentration of 10 μg/mL. This was further diluted with human plasma to provide 5, 2 and 0.5 μg/mL solutions. Similarly, aprepitant at above four concentration were also prepared in 10 % FBS in DMEM or 10 % FBS in water. Samples were incubated at 37 °C for 30 min to ensure equilibrium was established. Following incubation, an aliquot of sample was removed for determination of the drug concentration post incubation. Triplicate 500 μL aliquots of the samples were added to the sample reservoir of the UF unit with filtrate collection tubes. All ultrafiltration units were centrifuged at 13,000 rpm (15,000×g) for 15 min at 4 °C. […] Internal standard solution (500 μL) was added to each sample analyzed by the validated LC–MS/MS method described above. […]

In the next data set the test system is SIVmac251. Nature of the data set: SIV infectivity study, plasma viral load. It is filed as in vivo, rhesus macaques (Macaca mulatta). Here is the method:
For infectivity studies, eight male rhesus macaques were used. Animals were infected intravenously with 50 ng p27 of SIV. Following infection four animals were treated with aprepitant once daily dosing of 125 mg aprepitant administered orally for a year and four infected animals were left untreated. Aprepitant (commercial capsule contents) was mixed and co-administered with various food preparations to ensure dosing compliance. Food preparations included peanut butter, marshmallow cream and honey, disguised in non-citrus fruit. While formal stability and delivery experiments were not conducted, pilot bioavailability studies confirmed the robustness of aprepitant exposures following food co-administration. The improved bioavailability with food-based dosing in conjunction with oral aprepitant is consistent with preclinical experiments which project simulated exposures based on the commercial nanosized aprepitant formulation. In this evaluation, in silico model predictions were similar to observed in vivo pharmacokinetic data in the fed state; other studies have shown the benefit of complexation strategies to enhance aprepitant solubility/dissolution [30, 31].
Blood was collected for PK sampling on days 1, 7 and 14 and trough samples were collected prior to dosing on days 3, 5, 7, 11 and 13. […] Videotaped recordings were analyzed using Observer XT® (Noldus IT). […]

For data set [2], the system named is CD163 cleavage in human monocytes. The data set can be described thus: sCD163 release from human monocytes, ELISA. The following applies: aprepitant 10 μM 30 min before SP 5 μM 60 min, p = 0.004. Type of data set: cell-based. The protocol:
sCD163 was measured by ELISA (Trillium Diagnostics, Brewer, Maine, USA) according to manufacturer’s recommendations.
Fig. 7 SP induces cleavage of CD163 in monocytes. sCD163 was measured by ELISA in the supernatant of freshly isolated human monocytes treated with SP and aprepitant as indicated. a Time course of cells treated with varying doses of SP as indicated. *p < 0.001 control versus 5 and 10 μM of SP. b Cells were pre-incubated with aprepitant (10 μM) for 30 min and then treated with SP (5 μM) for 60 min. *p < 0.001 SP versus control, p = 0.004 SP versus SP + aprepitant. Results are presented as mean ± SD from three independent experiments

The next data set concerns HIV-1 Bal. The data set can be described thus: HIV infection of monocyte-derived macrophages (MDM) ex vivo, HIV gag mRNA by real time RT-PCR. It is filed as cell-based.
For another data set, the system named is anxiety-related behavior. The data set can be described thus: Anxiety-related behavior in SIV infected rhesus macaque (video recordings). The following applies: 125 mg/day. It is filed as in vivo. Here is the method:
Blood was collected for PK sampling on days 1, 7 and 14 and trough samples were collected prior to dosing on days 3, 5, 7, 11 and 13. […] Videotaped recordings were analyzed using Observer XT® (Noldus IT). Animals were sacrificed and necropsied after 1 year.
Fig. 4 Anxiety-related behavior* time course in SIV infected rhesus macaque receiving aprepitant at 125 mg/day or placebo. *Anxiety-related behavior was calculated based on the following parameters: body shake, hypervigilant scanning, self-licking and self-grooming, scratching, unresponsive inactivity and yawning.

Method for HIV-1 Bal: Blood samples were collected from the antecubital vein and monocytes were isolated as described below.
For HIV infectivity experiments PBMC were isolated from freshly collected blood samples using Ficoll-Paque (GE Healthcare, Uppsala, Sweden) gradient. Monocytes were purified by adhesion as described [26, 27] and cultured in 48-well plates at a density of 0.25 × 10^6/0.5 ml/well in DMEM supplemented with 10 % FBS for 7 days before HIV-1 infection. Macrophages from each subject were exposed to four experimental conditions (none, 1, 5 and 10 µM of aprepitant). 7-day-cultured MDM were incubated with aprepitant for 2 h before infection with HIV-1 Bal (NIH AIDS Reagent Program), 5 ng/well based on p24 antigen assay, corresponding to a MOI of 0.02 determined using MAGI cells expressing CD4 and CCR5 (NIH AIDS Reagent Program). Cells were incubated with virus overnight, and then extensively washed to remove unbound virus. The culture medium and the aprepitant were replaced twice weekly. At day 7 post HIV infection, cellular RNA was extracted from the MDM for assessment of HIV gag mRNA expression using real time RT-PCR assays.
Total RNA was extracted from MDM cells using RNeasy kit (Qiagen), and the potential DNA contamination was eliminated by on-column DNase digestion as instructed by the manufacturer (Qiagen). Total RNA (1 µg) was reverse transcribed using AffinityScript QPCR cDNA Synthesis kit ([sequence], Cedar Creek, TX) with random primer as instructed by the manufacture. 1 µl of the resulting cDNA was used as a template for real-time PCR amplification. […] Corresponding fragments of assayed genes cloned in pGEM-T vector (Promega) were used to generate standard curves.
Following differentiation for 7 days MDM were infected with HIV Bal. Macrophages from each subject were exposed to all four experimental conditions as indicated (1, 5 and 10 μM concentrations of aprepitant). Control, HIV infected MDM were treated with aprepitant vehicle, 0.001 % DMSO. RNA was collected 7 days after infection and assayed for expression of HIV GAG by real time RT PCR using the GAPDH housekeeping gene for normalization. GAG expression in control (non-treated) cultures were designated as 100 %; *p < 0.0001 between all groups including control were obtained through one-way ANOVA with post-test analysis by Bonferroni’s Multiple Comparison Test indicating significant difference between all groups in pair wise comparison. b Aprepitant added to DMEM 10 % FBS media or MDM cultures at a concentration of 1 μM (0.53 μg/ml) on day 0 and measured on days 0, 1, 2, 3 and 7. Results are presented as mean ± SD for three independent experiments

As for `C[C@@H](O[C@H]1OCCN(Cc2n[nH]c(=O)[nH]2)[C@H]1c1ccc(F)cc1)c1cc(C(F)(F)F)cc(C(F)(F)F)c1` [aprepitant], in the data set on human PBMC, the “effect on SP induced cytokine and chemokine production” value is on record as “blocked”. The “binding to human and rhesus macaque plasma and FBS” value in data set [1] is given as 99.79–99.95%. Also, the “reduction of viral load” value in the data set on SIVmac251 (125 mg once daily oral for 12 months, SIV-infected rhesus, weeks 12-52) is listed as “approximately tenfold”. In the data set with SIVmac251 (125 mg/day oral, 3–12 month observation period), the “reduction in plasma levels of viral RNA versus non-treated controls” value came to 1 log. Further, the “effect on SP induced sCD163 release” value in data set [2] is on record as “inhibited”. The IC50 in the data set with HIV-1 Bal (Human immunodeficiency virus 1, BAL, Macrophage, read-out: free drug IC50 concentration) is roughly 0.00265 µg/mL; in the data set on HIV-1 Bal (Human immunodeficiency virus 1, BAL, Macrophage, read-out: total IC50 concentration), 2.65 µg/mL; with HIV-1 Bal (Human immunodeficiency virus 1, Macrophage, 168 h, human MDM, HIV-1 Bal, gag mRNA day 7, total concentration in DMEM 10 % FBS, read-out: IC50 (ED50 in abstract) for inhibition of HIV infection in MDM), roughly 5 µM. Also, in the data set with HIV-1 Bal (Human immunodeficiency virus 1, Macrophage, human MDM, HIV-1 Bal, total concentration, read-out: IC90 for inhibition of HIV infection in MDM), the IC90 is roughly 10 µM. For the same molecule, the “anxiety-related behavior versus control” value with anxiety-related behavior (after first 4 weeks (weeks 12-20)) is “significant reduction of anxiety”; in the data set on anxiety-related behavior (first 4 weeks after infection), “no significant difference”.
